Measured values taken from US6608111B1, “Method for treating or preventing prostatic conditions” (Southern Illinois University Office of Research, …, priority 1998, dated 2003).

What was measured:
[1] = system: primary porcine granulosa cells; assay: In situ apoptosis assay in primary porcine granulosa cells; assay type: cell-based; settings: for mean apoptosis (% area): 24 hr treatment, 0.1, 1 and 10 μM combined, serum-free MEM, controls 63.4% / 68.4%
Description: Porcine ovaries were obtained from local packing plants and transported to the laboratory on ice-cold Hank's balanced salt solution (HBSS). Each of the follicles was aspirated with an insulin syringe, and the follicular fluid was centrifuged at 3000 rpm and 4° C. for 15 min. The supernatant was poured off and the cells were washed in 5 mls of cold HBSS and centrifuged for another 10 min. The cells were again resuspended in HBSS, and the number of viable cells counted under the microscope using a hematocytometer. Once the number of cells was determined, the cells were centrifuged again for 10 min. and resuspended in the appropriate volume of Eagle's minimum essential media (MEM) containing 10% fetal bovine serum (FBS) and antibiotic/antimycotics. The cells were plated at 250,000 per well in 8 chamber microscope slides (Nunc, Naperville, Ill.) which were pre-treated with poly-L-lysine for 10 min. The slides were incubated at 5% CO2/95% air at 37° C. Approximately 12 hours later, the medium was removed by vacuum and replaced with pre-warmed, serum-free MEM. Cells were then treated for 2-3 hrs with MEM only to wash out any estrogen effects from the serum (Winters et al. (1994) Biol. Reprod. 50 (Suppl. 1):113; Suttner et al. (1998) Biol. Reprod. 59 (Suppl.): (Accepted for publication). Following serum-free MEM treatment, cells were treated for 24 hr with (+) or (−) enantiomers of Z-BDDA or estradiol at 0. 1, 1, and 10 μM, or EtOH vehicle control in serum-free MEM. Cells were subsequently processed using an in situ apoptosis assay kit (Apotag-Plus In Situ Apoptosis Kit-Peroxidase, Edition 1.1., Oncor, Gaithersburg, Md., 1995) to study ovarian apoptosis (Suttner et al., 1998). The slides were washed in two changes of PBS for 5 min each, and then quenched in 2% hydrogen peroxide in methanol for 5 min. at room temperature. After pre-treatment with an equilibration buffer, 13 ul of Terminal deoxynucleotidyl Transferase (TdT) diluted with reaction buffer and distilled water were added, and the slides were incubated for 1 h at 37° C. in a humidified chamber. After this 1 h period, the slides were put in pre-warmed stop wash buffer in the incubator for 30 min to stop the reaction. Next, the slides were washed in three changes of PBS for 5 min. each, and the anti-digoxigenin peroxidase was placed on the slides for 30 min. in a humidified chamber at room temperature. […] The degree of apoptosis for the calorimetric apoptosis assay was quantified microscopically using an image analysis system (Optimas 5.23, Optimas Users Guide, 5th Edition, Redmond, Wash.). Ten measurements (captured images) were taken for each concentration based on a pre-determined grid. […] Percentage area of each color was then quantitated using the image analysis system. […]

female mice = settings: E2 5 g/animal/day, (±)-Z-BDDA 5, 50, and 500 g/animal/day, versus control group; cited from earlier work
[2] = system: estrogen receptors ERα and ERβ; settings: direct receptor binding assays or dose-response profiles of estrogen-responsive reporter genes in cell culture; cited from earlier work

C[C@]12CCC3c4ccc(O)cc4CCC3[C@@H]1CCC2O (single isomer, unassigned; (+)) [estradiol, (+)-17β-estradiol, reference compound]
percent apoptosis ([1]; 24 hr treatment at 10 μM): 23.8%
mean apoptosis (% area) [1]: 46.5%
rate of weight gain (female mice): increased

CC[C@H]1c2ccc3cc(O)ccc3c2CC[C@@]1(C)C(=O)O [(+)-Z-BDDA, (+)-Z-bisdehydrodoisynolic acid]
mean apoptosis (% area) [1]: 61.1%
binding affinity for estrogen receptors [2]: even lower than that of the (−) enantiomer
